# US20110098177A1, “METHODS AND COMPOSITIONS OF PLANT MICRONUTRIENTS” (NOVUS INTERNATIONAL INC., priority 2006, published 2011)
# Columns and labels:
# Assay type in all cases: in vivo
# Tygress tomato plants [1] = test: Foliar nutrient concentration at 6 WAT, open-field tomato (Examples 7-10); conditions: 6 WAT; open field; product rate as Table 17
# Procedure, shortened: (§1)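 Open-field 2008 trial, Balm FL; 'Tygress' tomato and 'Patriot' pepper transplants on drip-fed raised beds. Foliar micronutrient sprays at 3 and 5 WAT (BIOX-CM at 4 and 5), 60 gal/acre with surfactant. Youngest mature leaves sampled 6 WAT; RCBD, 5 replications, Fisher's LSD 5%.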
# [2] = system: Patriot bell pepper plants; test: Foliar nutrient concentration at 6 WAT, open-field bell pepper (Examples 7-10)
# Procedure, shortened: as §1
# [3] = system: Patriot bell pepper plants; test: Marketable yield, open-field bell pepper (Examples 7-10); conditions: open field; lb/acre/season: BIOX-Z 1.3, Cu 6.7, M 23.0, Fe 3.2, INC 4.0, INZ 0.6, CM 10.0, GZ 1.0, GF 4.0, EDZ 1.4, EDM 23.0
# Procedure, shortened: as §1
# Tygress tomato plants [4] = test: Nutrient concentration of tomato fruits at 10 WAT, open field (Examples 7-10)
# Procedure, shortened: as §1
# [5] = 6 WAT, open field, product rate as Table 17
# [6] = 10 WAT, open field, product rate as Table 17
compound,measurement,setting,value
Fe-HMTBA [BIOX-Fe],Foliar B concentration of tomato plants,Tygress tomato plants [1],21 ppm
same,Foliar Ca concentration of tomato plants,Tygress tomato plants [1],0.2%
same,Foliar Cu concentration of tomato plants,Tygress tomato plants [1],21 ppm
same,Foliar Fe concentration of tomato plants,Tygress tomato plants [1],77 ppm
same,Foliar K concentration of tomato plants,Tygress tomato plants [1],8.2%
same,Foliar Mg concentration of tomato plants,Tygress tomato plants [1],0.37%
same,Foliar Mn concentration of tomato plants,Tygress tomato plants [1],37 ppm
same,Foliar N concentration of tomato plants,Tygress tomato plants [1],4.2%
same,Foliar P concentration of tomato plants,Tygress tomato plants [1],0.69%
same,Foliar Zn concentration of tomato plants,Tygress tomato plants [1],294 ppm
same,Foliar nutrient concentration: B,[2]; bell pepper plants at 6 WAT,39 ppm
same,Foliar nutrient concentration: Ca,[2]; bell pepper plants at 6 WAT,2.2%
same,Foliar nutrient concentration: Cu,[2]; bell pepper plants at 6 WAT,369 ppm
same,Foliar nutrient concentration: Fe,[2]; bell pepper plants at 6 WAT,112 ppm
same,Foliar nutrient concentration: K,[2]; bell pepper plants at 6 WAT,6.0%
same,Foliar nutrient concentration: Mg,[2]; bell pepper plants at 6 WAT,0.66%
same,Foliar nutrient concentration: Mn,[2]; bell pepper plants at 6 WAT,251 ppm
same,Foliar nutrient concentration: N,[2]; bell pepper plants at 6 WAT,5.0%
same,Foliar nutrient concentration: P,[2]; bell pepper plants at 6 WAT,0.20%
same,Foliar nutrient concentration: Zn,[2]; bell pepper plants at 6 WAT,318 ppm
same,"Marketable yield, Bell Pepper",[3],7.2 ton/acre
same,Nutrient concentration of tomato fruits: B,Tygress tomato plants [4]; tomato fruits at 10 WAT,21 ppm
same,Nutrient concentration of tomato fruits: Ca,Tygress tomato plants [4]; tomato fruits at 10 WAT,0.2%
same,Nutrient concentration of tomato fruits: Cu,Tygress tomato plants [4]; tomato fruits at 10 WAT,21 ppm
same,Nutrient concentration of tomato fruits: Fe,Tygress tomato plants [4]; tomato fruits at 10 WAT,77 ppm
same,Nutrient concentration of tomato fruits: K,Tygress tomato plants [4]; tomato fruits at 10 WAT,8.2%
same,Nutrient concentration of tomato fruits: Mg,Tygress tomato plants [4]; tomato fruits at 10 WAT,0.37%
same,Nutrient concentration of tomato fruits: Mn,Tygress tomato plants [4]; tomato fruits at 10 WAT,37 ppm
same,Nutrient concentration of tomato fruits: N,Tygress tomato plants [4]; tomato fruits at 10 WAT,4.2%
same,Nutrient concentration of tomato fruits: P,Tygress tomato plants [4]; tomato fruits at 10 WAT,0.69%
same,Nutrient concentration of tomato fruits: Zn,Tygress tomato plants [4]; tomato fruits at 10 WAT,294 ppm
"CSCCC(O)C(=O)[O-].CSCCC(O)C(=O)[O-].[Cu+2] (centres unmarked) [BIOX-Cu, Cu-HMTBA]",Foliar B concentration of tomato plants,Tygress tomato plants [1],42 ppm
same,Foliar Ca concentration of tomato plants,Tygress tomato plants [1],1.8%
same,Foliar Cu concentration of tomato plants,Tygress tomato plants [1],407 b ppm
same,Foliar Fe concentration of tomato plants,Tygress tomato plants [1],83 ppm
same,Foliar K concentration of tomato plants,Tygress tomato plants [1],5.6%
same,Foliar Mg concentration of tomato plants,Tygress tomato plants [1],0.58%
same,Foliar Mn concentration of tomato plants,Tygress tomato plants [1],211 ppm
same,Foliar N concentration of tomato plants,Tygress tomato plants [1],5.0%
same,Foliar P concentration of tomato plants,Tygress tomato plants [1],0.21%
same,Foliar Zn concentration of tomato plants,Tygress tomato plants [1],306 ppm
same,Foliar B concentration of bell pepper plants,[2]; [5],42 ppm
same,Foliar Ca concentration of bell pepper plants,[2]; [5],1.8%
same,Foliar Cu concentration of bell pepper plants,[2]; [5],407 b ppm
same,Foliar Fe concentration of bell pepper plants,[2]; [5],83 ppm
same,Foliar K concentration of bell pepper plants,[2]; [5],5.6%
same,Foliar Mg concentration of bell pepper plants,[2]; [5],0.58%
same,Foliar Mn concentration of bell pepper plants,[2]; [5],211 ppm
same,Foliar N concentration of bell pepper plants,[2]; [5],5.0%
same,Foliar P concentration of bell pepper plants,[2]; [5],0.21%
same,Foliar Zn concentration of bell pepper plants,[2]; [5],306 ppm
same,"Marketable yield, Bell Pepper",[3],7.8 ton/acre
same,B concentration of tomato fruits,Tygress tomato plants [4]; [6],21 ppm
same,Ca concentration of tomato fruits,Tygress tomato plants [4]; [6],0.2%
same,Cu concentration of tomato fruits,Tygress tomato plants [4]; [6],21 ppm
same,Fe concentration of tomato fruits,Tygress tomato plants [4]; [6],77 ppm
same,K concentration of tomato fruits,Tygress tomato plants [4]; [6],8.5%
same,Mg concentration of tomato fruits,Tygress tomato plants [4]; [6],0.39%
same,Mn concentration of tomato fruits,Tygress tomato plants [4]; [6],37 ppm
same,N concentration of tomato fruits,Tygress tomato plants [4]; [6],4.4%
same,P concentration of tomato fruits,Tygress tomato plants [4]; [6],0.67%
same,Zn concentration of tomato fruits,Tygress tomato plants [4]; [6],294 ppm
